Test results published in patent US8067451B2, “Methods and medicaments for administration of ibuprofen” (Horizon Pharma USA, Inc., priority 2006, dated 2011).
Like-named read-outs stand apart in the source and are kept apart here.

Experiments:
[1] = Excerpt: where V/F is the apparent volume of distribution, ka is the absorption rate constant, kel is the elimination rate constant and Tlag is the absorption lag time.
intragastric pH = system: intragastric pH
Excerpt: The estimated pharmacodynamic parameters are listed below: Using the pharmacokinetic parameters obtained above together with the pharmacodynamic parameters above, plasma concentrations as well as intragastric pH as a function of time were simulated for various dose regimens.

gastric pH = conditions: for Amount by which TID dosing exceeded BID dosing, Gastric pH (24 h), mean of group / Amount by which TID dosing exceeded BID dosing, Upright Gastric pH, mean of group / Mean reduction in time with gastric pH below 3.5, TID compared to BID / Mean reduction in time with gastric pH below 4.0, TID compared to BID: 26.6 mg TID vs 40 mg BID; for Median pH (Upright), by subject / Fraction time pH < 4, by subject / Time pH < 4, by subject: individual subjects; for Fraction time pH < 4, by subject / Time pH < 4, by subject: 24 h; for Patients with 24-hour median gastric pH below 2.5: 13 subjects
Procedure: Thirteen healthy subjects participated in the study.
There was a washout of at least one week between administration of the last dose of Treatment Period 1 and administration of the first dose of Treatment Period 2.
All doses of study medication were administered orally, on an open-label basis. Subjects were prohibited from taking any medications or interventions that decrease gastric acid secretion or neutralize gastric acid, and any medications that are known or suspected to cause dyspepsia or gastrointestinal ulcers, throughout the study period.
(The first day of dosing for each treatment period is designated Study Day 1, and the last day of dosing is designated Study Day […]). Subjects were followed for 14 days after administration of their last dose of study medication.
(§1) For each patient the median pH during a 24 hour period (or subperiod thereof) was calculated. To measure the effect of treatments for a group of individuals, the average or mean of the measured medians for several individuals was determined (i.e., average={[M1+M2 . . . Mx]/X} where “x” is the number of individuals in the group and each “M” is the median for an individual in the group).

[2] = remark: listed apart in the source
Procedure: as §1
Samples were collected prior to initiation of dosing, and prior to administration of the second dose of study medication on Study Day 1 and Study Day 5 during both treatment periods.

[3] = for Famotidine (% control): glass vials
Excerpt: Forced degradation conditions refer to conditions of elevated temperature, or elevated temperature and humidity, intended to accelerate the process of chemical degradation. Forced degradation conditions for a period of time are used to predict the effect of storage under more benign conditions (e.g., room temperature) for a longer period of time.
After grinding, API mixture was stored in glass vials under the conditions indicated.

clinical = conditions: male, human, plasma
[4] = Pharmacokinetic drug-drug interaction study of ibuprofen and famotidine in healthy male subjects; conditions: for Bioequivalence when administered in combination compared to separate administration: 800 mg ibuprofen and 40 mg famotidine; for Difference of log-transformed AUC(last), alone versus in combination / Difference of log-transformed Cmax, alone versus in combination: bioequivalence test
[5] = fit to mean plasma data of 40 mg Pepcid single dose study
[6] = 26.6 mg TID, 24 h of Study Day 1, all subjects n=13
[7] = 26.6 mg TID, Study Day 1, all subjects
[8] = 26.6 mg TID, Study Day 1, all subjects n=13
[9] = 26.6 mg TID, Study Day 1, normal weight subjects
[10] = 26.6 mg TID, Study Day 1, normal weight subjects n=9
[11] = 40 mg BID, 24 h of Study Day 1, all subjects n=13
[12] = 40 mg BID, Study Day 1, all subjects
[13] = 40 mg BID, Study Day 1, all subjects n=13
[14] = 40 mg BID, Study Day 1, normal weight subjects
[15] = 40 mg BID, Study Day 1, normal weight subjects n=9

Compound: NC(N)=Nc1nc(CSCCC(N)=NS(N)(=O)=O)cs1 [famotidine, 3-[2-(diaminomethyleneamino)thiazol-4-ylmethylthio]-N-sulfamoyl propionamidine]
- V/F (apparent volume of distribution) ([1]; fit to mean plasma data of 40 mg Pepcid single dose bioequivalence study (n=30)): 241.8 L
- Tlag (absorption lag time) [1, 5]: 0.3677 h
- ka (absorption rate constant) [1, 5]: 0.8133 h⁻¹
- kel (elimination rate constant) [1, 5]: 0.2643 h⁻¹
- Emax (maximum intragastric pH) (intragastric pH; sigmoid Emax fit of digitized plasma concentration vs intragastric pH, one patient (Echizen and Ishizaki)): 7.80
- E0 (intragastric pH at time zero) (intragastric pH; sigmoid Emax fit, one patient): 1.88
- γ (shape factor) (intragastric pH; sigmoid Emax fit, one patient): 4.80
- EC50 (Pepcid concentration at one-half of Emax) (intragastric pH; sigmoid Emax fit, plasma concentration vs intragastric pH, one patient): 0.0326 µg/mL
- Amount by which TID dosing exceeded BID dosing, Gastric pH (24 h), mean of group (gastric pH; all subjects): 0.3 pH Units
- Amount by which TID dosing exceeded BID dosing, Upright Gastric pH, mean of group (gastric pH; all subjects): 0.5 pH Units
- Mean reduction in time with gastric pH below 3.5, TID compared to BID (gastric pH; all subjects): 19.5 min
- Mean reduction in time with gastric pH below 4.0, TID compared to BID (gastric pH; all subjects): 23.1 min
- Amount by which TID dosing exceeded BID dosing, Gastric pH (24 h), mean of group (gastric pH; normal weight group): 0.5 pH Units
- Amount by which TID dosing exceeded BID dosing, Upright Gastric pH, mean of group (gastric pH; normal weight group): 0.8 pH Units
- Mean reduction in time with gastric pH below 3.5, TID compared to BID (gastric pH; normal weight group): 89.3 min
- Mean reduction in time with gastric pH below 4.0, TID compared to BID (gastric pH; normal weight group): 89.9 min
- Average time below pH 3.5 (gastric pH; [6]): 693.5 min
- Average time below pH 4.0 (gastric pH; [6]): 783.4 Minutes
- Average Absolute Deviation of 24 hour median gastric pH (gastric pH; [7]): 0.5
- Average Absolute Deviation of pH in upright position (gastric pH; [7]): 0.7
- Average Absolute Deviation of time below pH 3.5 (gastric pH; [7]): 124.7 min
- Average Absolute Deviation of time below pH 4.0 (gastric pH; [7]): 111.9 min
- Max-Min of pH values in the upright position (gastric pH; [7]): 2.4 pH units
- Max-Min of time below pH 3.5 (gastric pH; [7]): 436 min
- Max-Min of time below pH 4.0 (gastric pH; [7]): 459 min
- Standard Deviation of 24 hour median gastric pH (gastric pH; [7]): 0.7
- Max-Min of 24 hour median gastric pH (gastric pH; [8]): 1.9 pH units
- Mean of 24 hour median gastric pH (gastric pH; [8]): 3.6 pH units
- Mean of pH values taken in the upright position (gastric pH; [8]): 3.7
- Range of 24 hour median gastric pH (gastric pH; [8]): 2.5-4.4
- Range of pH values taken in the upright position (gastric pH; [8]): 2.3-4.7
- Range of time below pH 3.5 (gastric pH; [8]): 514-950 min
- Range of time below pH 4.0 (gastric pH; [8]): 589-1048 Minutes
- Average Absolute Deviation of 24 hour median gastric pH (gastric pH; [9]): 0.5
- Average Absolute Deviation of time below pH 3.5 (gastric pH; [9]): 116.7 min
- Average Absolute Deviation of time below pH 4.0 (gastric pH; [9]): 105.4 min
- Average Absolute Deviation of upright pH values (gastric pH; [9]): 0.9
- Average time below pH 3.5 (gastric pH; [9]): 662.7 min
- Average time below pH 4.0 (gastric pH; [9]): 764.2 Minutes
- Max-Min of 24 hour median gastric pH (gastric pH; [9]): 1.9 pH units
- Max-Min of time below pH 3.5 (gastric pH; [9]): 436 min
- Max-Min of time below pH 4.0 (gastric pH; [9]): 459 min
- Max-Min of upright pH values (gastric pH; [9]): 2.4 pH units
- Mean of upright pH values (gastric pH; [9]): 3.8
- Range of time below pH 3.5 (gastric pH; [9]): 514-950 min
- Range of time below pH 4.0 (gastric pH; [9]): 589-1048 Minutes
- Range of upright pH values (gastric pH; [9]): 2.3-4.7
- Standard Deviation of 24 hour median gastric pH (gastric pH; [9]): 0.7
- Mean of 24 hour median gastric pH (gastric pH; [10]): 3.6
- Range of 24 hour median gastric pH (gastric pH; [10]): 2.5-4.4
- Average time below pH 3.5 (gastric pH; [11]): 713.0 min
- Average time below pH 4.0 (gastric pH; [11]): 806.5 Minutes
- Average Absolute Deviation of 24 hour median gastric pH (gastric pH; [12]): 0.9
- Average Absolute Deviation of pH in upright position (gastric pH; [12]): 1.0
- Average Absolute Deviation of time below pH 3.5 (gastric pH; [12]): 169.1 min
- Average Absolute Deviation of time below pH 4.0 (gastric pH; [12]): 158.8 min
- Max-Min of pH values in the upright position (gastric pH; [12]): 3.3 pH units
- Max-Min of time below pH 3.5 (gastric pH; [12]): 706 min
- Max-Min of time below pH 4.0 (gastric pH; [12]): 710 min
- Standard Deviation of 24 hour median gastric pH (gastric pH; [12]): 1.1
- Max-Min of 24 hour median gastric pH (gastric pH; [13]): 3.3 pH units
- Mean of 24 hour median gastric pH (gastric pH; [13]): 3.3 pH units
- Mean of pH values taken in the upright position (gastric pH; [13]): 3.2
- Range of 24 hour median gastric pH (gastric pH; [13]): 1.8-5.1
- Range of pH values taken in the upright position (gastric pH; [13]): 1.8-5.1
- Range of time below pH 3.5 (gastric pH; [13]): 459-1165 min
- Range of time below pH 4.0 (gastric pH; [13]): 514-1224 Minutes
- Average Absolute Deviation of 24 hour median gastric pH (gastric pH; [14]): 0.9
- Average Absolute Deviation of time below pH 3.5 (gastric pH; [14]): 175.1 min
- Average Absolute Deviation of time below pH 4.0 (gastric pH; [14]): 155.7 min
- Average Absolute Deviation of upright pH values (gastric pH; [14]): 1.0
- Average time below pH 3.5 (gastric pH; [14]): 752.0 min
- Average time below pH 4.0 (gastric pH; [14]): 854.1 Minutes
- Max-Min of 24 hour median gastric pH (gastric pH; [14]): 2.2 pH units
- Max-Min of time below pH 3.5 (gastric pH; [14]): 679 min
- Max-Min of time below pH 4.0 (gastric pH; [14]): 510 min
- Max-Min of upright pH values (gastric pH; [14]): 2.8 pH units
- Mean of upright pH values (gastric pH; [14]): 3.0
- Range of time below pH 3.5 (gastric pH; [14]): 486-1165 min
- Range of time below pH 4.0 (gastric pH; [14]): 714-1224 Minutes
- Range of upright pH values (gastric pH; [14]): 1.8-4.6
- Standard Deviation of 24 hour median gastric pH (gastric pH; [14]): 1.1
- Mean of 24 hour median gastric pH (gastric pH; [15]): 3.1
- Range of 24 hour median gastric pH (gastric pH; [15]): 1.8-4.0
- Median pH (Upright), by subject (gastric pH; BID 40 mg): 1.8 pH Units
- Fraction time pH < 4, by subject (gastric pH; BID 40 mg): (69.8%)
- Time pH < 4, by subject (gastric pH; BID 40 mg): 1005 min
- Patients with 24-hour median gastric pH below 2.5 (gastric pH; BID period (40 mg)): three
- Difference in Median pH (Upright), TID period vs BID period (gastric pH; Subject 106): 2.2 pH Units
- Difference in Median pH, TID period vs BID period (gastric pH; Subject 106): 2.1 pH Units
- Difference in Time pH < 4, BID period vs TID period (gastric pH; Subject 106): 268 min
- Median pH (Upright), by subject (gastric pH; TID 26.6 mg): 4.0 pH Units
- Fraction time pH < 4, by subject (gastric pH; TID 26.6 mg): (51.2%)
- Time pH < 4, by subject (gastric pH; TID 26.6 mg): 737 min
- Patients with 24-hour median gastric pH below 2.5 (gastric pH; TID period (26.6 mg)): no patients
- Plasma accumulation with TID dosing ([2]; 26.6 mg TID vs 40 mg BID, day 5 trough): does not lead to plasma accumulation
- Trough plasma concentration of famotidine (mean) ([2]; 26.6 mg TID, Day 1, prior to second dose): 9.7 ng/mL
- Trough plasma concentration of famotidine (mean) ([2]; 26.6 mg TID, Day 5, prior to second dose): 15.7 ng/mL
- Trough plasma concentration of famotidine (mean) ([2]; 40 mg BID, Day 1, prior to second dose): 10.5 ng/mL
- Trough plasma concentration of famotidine (mean) ([2]; 40 mg BID, Day 5, prior to second dose): 15.7 ng/mL
- Famotidine (% control) ([3]; 1 wk 40° C.): 96.1 % control
- Famotidine (% control) ([3]; 1 wk 60° C.): 121.0 % control
- Famotidine Content (percent of target content) ([3]; 2 weeks at 60° C.): 98%
- Famotidine (% control) ([3]; 2 wks 60° C.): 100.1 % control
- Tmax (clinical; oral): 2.17 ± 0.93 h
- half-life (clinical; oral): 3.49 ± 0.35 h
- Tmax (clinical; po): 1.67 ± 0.52 h
- half-life (clinical; po): 3.66 ± 0.19 h
- Bioequivalence when administered in combination compared to separate administration [4]: bioequivalent
- Kel (mean ± SD) ([4]; administered alone, single oral dose, 800 mg ibuprofen or 40 mg famotidine): 0.19 ± 0.01
- Difference of log-transformed AUC(last), alone versus in combination [4]: −0.034
- Difference of log-transformed Cmax, alone versus in combination [4]: −0.08

Compound: CC(C)Cc1ccc(C(C)C(=O)O)cc1 (stereo not drawn) [ibuprofen, 2-(p-isobutylphenyl) propionic acid]
- Tmax (clinical; oral): 2.25 ± 1.89 h
- Tmax (clinical; po): 1.58 ± 0.49 h
- Bioequivalence when administered in combination compared to separate administration [4]: bioequivalent
- Difference of log-transformed AUC(last), alone versus in combination [4]: 0.02
- Difference of log-transformed Cmax, alone versus in combination [4]: 0.02
